Assay results from PubChem BioAssay (NCI).
Several values for one entry are separate records, joined by “and”; a condition that tells them apart may be missing. Identical values can stand only once.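 Compound exposure: 48 hours, 5 concentrations, 96-well plates. Abbreviation: GI50, concentration required for 50% inhibition of growth. TGI: total growth inhibition.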 Where a SMILES comes first, the peptide text is derived from it. The star is where a group is joined. Boc = CC(C)(C)OC(=O)*

Tested on: HCT-116 colon
Assay: inhibition of tumour cell growth, NCI panel, 48 h

Row | SMILES | GI50 | TGI
1 | Cc1ccc(Nc2oc(-c3ccccc3)nc2[P+](c2ccccc2)(c2ccccc2)c2ccccc2)cc1 | 0.377 µM | 1.39 µM
2 | CS(=O)(=O)Nc1cc(-c2ccc3ncnc(Nc4c(Cl)ccc5c4OCO5)c3c2)cnc1Cl | 0.269 µM | 1.97 µM
3 | COc1ccccc1Nc1ncc(-c2ccccc2)o1 | > 25 µM | > 25 µM
4 | Nc1ccn(C2OC(CO)C(O)C2O)c(=O)n1 (centres undefined) | 0.142 µM | > 500 µM
5 | CN(C)c1ccc(N=Nc2ccccn2)c(O)c1 | 0.254 µM | > 71.7 µM
6 | O=C(NNc1ccccc1)C(=O)NNc1ccccc1 | 6.42 µM | > 100 µM
7 | Nc1c(C(=O)c2ccccc2)cnn1-c1ccc(F)cc1 | > 25 µM | > 25 µM
8 | CC1(C)CC(=O)CC(=Nc2ccc([N+](=O)[O-])cc2)C1 |  | 40.9 µM
9 | C#Cc1nc(Nc2cc(C)[nH]n2)c2ccccc2n1 | 0.248 µM | 0.951 µM
10 | COC(=O)C(C)NC(=O)C(CCSC)NC(=O)C(Cc1ccccc1)NC(=O)OC(C)(C)C (stereo not drawn) (Boc-Phe-Met-Ala-OMe; configuration not given here) | 17.1 µg/mL | 
11 | C/C(=N\NC(=S)N1CCCCCC1)c1ccccn1 |  | 3.16 µM and 4.28 µM
12 | Cc1nc2cc(Nc3nc(Nc4ccc(F)cc4)nc(-c4cccs4)n3)ccc2n1Cc1ccccc1 | 3.35 µM | 13.3 µM
13 | Oc1ccc2ccccc2c1N=Nc1ccc(Br)cc1 |  | > 100 µM
14 | CC(C)=CCc1cc2c(cc1O)OC[C@H]1c3cc4c(cc3O[C@@H]21)OCO4 |  | 32.2 µM
15 | COc1cc2c3c(c1OC)-c1cc4c(cc1CC3(C#N)N(C(=O)c1ccccc1)CC2)OCO4 (centres undefined) |  | > 87.2 µM
16 | CCOC(=O)c1c(-c2ccc(OC)cc2)c(C#N)c2c(C#N)c(N)nn2c1N | 4.35 µM | 19.4 µM
17 | COC(=O)C1=CN(CC2=CC(=O)C(C)=CC2=O)C=C(C(=O)OC)C1c1cccc(OC)c1 | 3.63 µM | 11.1 µM

Tested on: HCT-15 colon
Assay: inhibition of tumour cell growth, NCI panel, 48 h

Row | SMILES | GI50 [µM] | TGI
18 | Cc1ccc(Nc2oc(-c3ccccc3)nc2[P+](c2ccccc2)(c2ccccc2)c2ccccc2)cc1 | 0.64 | 2.16 µM
19 | CS(=O)(=O)Nc1cc(-c2ccc3ncnc(Nc4c(Cl)ccc5c4OCO5)c3c2)cnc1Cl | 0.204 | 1.49 µM
20 | COc1ccccc1Nc1ncc(-c2ccccc2)o1 | > 25 | > 25 µM
21 | Nc1ccn(C2OC(CO)C(O)C2O)c(=O)n1 (centres undefined) |  | > 500 µM
22 | CN(C)c1ccc(N=Nc2ccccn2)c(O)c1 | 0.112 | > 100 µM
23 | O=C(NNc1ccccc1)C(=O)NNc1ccccc1 | 0.746 | > 100 µM
24 | Nc1c(C(=O)c2ccccc2)cnn1-c1ccc(F)cc1 | > 25 | > 25 µM
25 | CC1(C)CC(=O)CC(=Nc2ccc([N+](=O)[O-])cc2)C1 |  | > 100 µM
26 | C#Cc1nc(Nc2cc(C)[nH]n2)c2ccccc2n1 | 0.205 | 0.474 µM
27 | COC(=O)C(C)NC(=O)C(CCSC)NC(=O)C(Cc1ccccc1)NC(=O)OC(C)(C)C (stereo not drawn) (Boc-Phe-Met-Ala-OMe; configuration not given here) |  | > 100 µM
28 | C/C(=N\NC(=S)N1CCCCCC1)c1ccccn1 | 0.0497 | 1.99 µM and 4.43 µM
29 | Cc1nc2cc(Nc3nc(Nc4ccc(F)cc4)nc(-c4cccs4)n3)ccc2n1Cc1ccccc1 | 3.11 | 16.3 µM
30 | Oc1ccc2ccccc2c1N=Nc1ccc(Br)cc1 |  | > 100 µM
31 | CC(C)=CCc1cc2c(cc1O)OC[C@H]1c3cc4c(cc3O[C@@H]21)OCO4 |  | > 100 µM
32 | COc1cc2c3c(c1OC)-c1cc4c(cc1CC3(C#N)N(C(=O)c1ccccc1)CC2)OCO4 (centres undefined) |  | > 100 µM
33 | CCOC(=O)c1c(-c2ccc(OC)cc2)c(C#N)c2c(C#N)c(N)nn2c1N | 2.95 | > 100 µM
34 | COC(=O)C1=CN(CC2=CC(=O)C(C)=CC2=O)C=C(C(=O)OC)C1c1cccc(OC)c1 | 16.6 | 39 µM

Tested on: HT29 colon
Assay: inhibition of tumour cell growth, NCI panel, 48 h

Row | SMILES | GI50 [µM] | TGI
35 | Cc1ccc(Nc2oc(-c3ccccc3)nc2[P+](c2ccccc2)(c2ccccc2)c2ccccc2)cc1 | 0.38 | 1.59 µM
36 | CS(=O)(=O)Nc1cc(-c2ccc3ncnc(Nc4c(Cl)ccc5c4OCO5)c3c2)cnc1Cl | 0.238 | 3.93 µM
37 | COc1ccccc1Nc1ncc(-c2ccccc2)o1 | > 25 | > 25 µM
38 | Nc1ccn(C2OC(CO)C(O)C2O)c(=O)n1 (centres undefined) | 2.01 | > 500 µM
39 | CN(C)c1ccc(N=Nc2ccccn2)c(O)c1 | 0.415 | > 100 µM
40 | O=C(NNc1ccccc1)C(=O)NNc1ccccc1 | > 100 | > 100 µM
41 | Nc1c(C(=O)c2ccccc2)cnn1-c1ccc(F)cc1 | > 25 | > 25 µM
42 | CC1(C)CC(=O)CC(=Nc2ccc([N+](=O)[O-])cc2)C1 |  | > 100 µM
43 | C#Cc1nc(Nc2cc(C)[nH]n2)c2ccccc2n1 | 0.356 | 11.3 µM
44 | COC(=O)C(C)NC(=O)C(CCSC)NC(=O)C(Cc1ccccc1)NC(=O)OC(C)(C)C (stereo not drawn) (Boc-Phe-Met-Ala-OMe; configuration not given here) |  | > 100 µM
45 | C/C(=N\NC(=S)N1CCCCCC1)c1ccccn1 |  | 2.52 µM and 10.6 µM
46 | Cc1nc2cc(Nc3nc(Nc4ccc(F)cc4)nc(-c4cccs4)n3)ccc2n1Cc1ccccc1 | 2.12 | 4.44 µM
47 | Oc1ccc2ccccc2c1N=Nc1ccc(Br)cc1 |  | > 100 µM
48 | CC(C)=CCc1cc2c(cc1O)OC[C@H]1c3cc4c(cc3O[C@@H]21)OCO4 |  | > 100 µM
49 | COc1cc2c3c(c1OC)-c1cc4c(cc1CC3(C#N)N(C(=O)c1ccccc1)CC2)OCO4 (centres undefined) |  | > 100 µM
50 | CCOC(=O)c1c(-c2ccc(OC)cc2)c(C#N)c2c(C#N)c(N)nn2c1N | 3.98 | > 100 µM
51 | COC(=O)C1=CN(CC2=CC(=O)C(C)=CC2=O)C=C(C(=O)OC)C1c1cccc(OC)c1 | 37 | > 100 µM

Tested on: MOLT-4 leukemia
Assay: inhibition of tumour cell growth, NCI panel, 48 h

Row | SMILES | GI50 | TGI
52 | Cc1ccc(Nc2oc(-c3ccccc3)nc2[P+](c2ccccc2)(c2ccccc2)c2ccccc2)cc1 | 0.563 µM | 2.52 µM
53 | CS(=O)(=O)Nc1cc(-c2ccc3ncnc(Nc4c(Cl)ccc5c4OCO5)c3c2)cnc1Cl | 0.165 µM | 0.76 µM
54 | COc1ccccc1Nc1ncc(-c2ccccc2)o1 | > 25 µM | > 25 µM
55 | Nc1ccn(C2OC(CO)C(O)C2O)c(=O)n1 (centres undefined) | 0.0103 µM and 0.0148 µM | 
56 | CN(C)c1ccc(N=Nc2ccccn2)c(O)c1 | 0.243 µM | > 87.8 µM
57 | O=C(NNc1ccccc1)C(=O)NNc1ccccc1 | 1.6 µM | > 100 µM
58 | Nc1c(C(=O)c2ccccc2)cnn1-c1ccc(F)cc1 | > 25 µM | > 25 µM
59 | CC1(C)CC(=O)CC(=Nc2ccc([N+](=O)[O-])cc2)C1 |  | > 100 µM
60 | C#Cc1nc(Nc2cc(C)[nH]n2)c2ccccc2n1 | 0.25 µM | 0.685 µM
61 | COC(=O)C(C)NC(=O)C(CCSC)NC(=O)C(Cc1ccccc1)NC(=O)OC(C)(C)C (stereo not drawn) (Boc-Phe-Met-Ala-OMe; configuration not given here) | 18.6 µg/mL | 40.2 µg/mL and > 100 µM
62 | C/C(=N\NC(=S)N1CCCCCC1)c1ccccn1 |  | 3.46 µM and > 31.9 µM
63 | Cc1nc2cc(Nc3nc(Nc4ccc(F)cc4)nc(-c4cccs4)n3)ccc2n1Cc1ccccc1 | 2.97 µM | 9.3 µM
64 | Oc1ccc2ccccc2c1N=Nc1ccc(Br)cc1 |  | > 100 µM
65 | CC(C)=CCc1cc2c(cc1O)OC[C@H]1c3cc4c(cc3O[C@@H]21)OCO4 |  | 57.4 µM
66 | COc1cc2c3c(c1OC)-c1cc4c(cc1CC3(C#N)N(C(=O)c1ccccc1)CC2)OCO4 (centres undefined) |  | > 100 µM
67 | CCOC(=O)c1c(-c2ccc(OC)cc2)c(C#N)c2c(C#N)c(N)nn2c1N | 4.07 µM | > 100 µM
68 | COC(=O)C1=CN(CC2=CC(=O)C(C)=CC2=O)C=C(C(=O)OC)C1c1cccc(OC)c1 | 3.11 µM | > 100 µM

Tested on: NCI-H522 lung
Assay: inhibition of tumour cell growth, NCI panel, 48 h

Row | SMILES | GI50 | TGI
69 | Cc1ccc(Nc2oc(-c3ccccc3)nc2[P+](c2ccccc2)(c2ccccc2)c2ccccc2)cc1 | 0.45 µM | 1.79 µM
70 | CS(=O)(=O)Nc1cc(-c2ccc3ncnc(Nc4c(Cl)ccc5c4OCO5)c3c2)cnc1Cl | 0.224 µM | 2.56 µM
71 | COc1ccccc1Nc1ncc(-c2ccccc2)o1 | > 25 µM | > 25 µM
72 | Nc1ccn(C2OC(CO)C(O)C2O)c(=O)n1 (centres undefined) |  | > 500 µM
73 | CN(C)c1ccc(N=Nc2ccccn2)c(O)c1 | 0.372 µM | 
74 | O=C(NNc1ccccc1)C(=O)NNc1ccccc1 | > 100 µM | > 100 µM
75 | Nc1c(C(=O)c2ccccc2)cnn1-c1ccc(F)cc1 | > 25 µM | > 25 µM
76 | CC1(C)CC(=O)CC(=Nc2ccc([N+](=O)[O-])cc2)C1 |  | > 100 µM
77 | C#Cc1nc(Nc2cc(C)[nH]n2)c2ccccc2n1 | 0.476 µM | 1.99 µM
78 | COC(=O)C(C)NC(=O)C(CCSC)NC(=O)C(Cc1ccccc1)NC(=O)OC(C)(C)C (stereo not drawn) (Boc-Phe-Met-Ala-OMe; configuration not given here) | 13.1 µg/mL | 
79 | C/C(=N\NC(=S)N1CCCCCC1)c1ccccn1 | 0.109 µM | 0.623 µM and 1.39 µM
80 | Cc1nc2cc(Nc3nc(Nc4ccc(F)cc4)nc(-c4cccs4)n3)ccc2n1Cc1ccccc1 | 2.66 µM | 9.16 µM
81 | Oc1ccc2ccccc2c1N=Nc1ccc(Br)cc1 |  | > 100 µM
82 | CC(C)=CCc1cc2c(cc1O)OC[C@H]1c3cc4c(cc3O[C@@H]21)OCO4 |  | > 100 µM
83 | COc1cc2c3c(c1OC)-c1cc4c(cc1CC3(C#N)N(C(=O)c1ccccc1)CC2)OCO4 (centres undefined) |  | 81.2 µM
84 | CCOC(=O)c1c(-c2ccc(OC)cc2)c(C#N)c2c(C#N)c(N)nn2c1N | 2.55 µM | 12.5 µM
85 | COC(=O)C1=CN(CC2=CC(=O)C(C)=CC2=O)C=C(C(=O)OC)C1c1cccc(OC)c1 | 8.19 µM | > 31.9 µM
